Assay results: patent publication US20180057588A1, “Antibodies Towards an Extracellular Region of NBCn1” (Aarhus Universitet, priority 2015, published 2018)

Legend:
[1] = tested on: VSMC migration in primary aortic explants; test: Scratch-wound healing in primary aortic explants; type: cell-based, mouse
Procedure: (§1) Rates of wound healing in primary explants were calculated from time-lapse images captured at 5-minute intervals after scratch infliction. Experiments were performed in Minimum Essential Medium with 10% fetal calf serum or—to avoid binding of the non-selective Na^+,HCO3^−-cotransport inhibitor S0859 to medium or serum components—in physiological saline solutions (PSS). Cell size was estimated based on cell density in confluent areas. Total filopodia length was determined relative to the length of the migrating front (i.e., twice the scratch length). Cell proliferation was evaluated (a) by counting the relative number of cells dividing during six hours time-lapse imaging and (b) as the proportion of cells positive for the thymidine analogue bromodeoxyuridine (BrdU) after six hours incubation.
(§2) The PSS was composed of (in mM) 134 Na^+, 4 K^+, 1.6 Ca^2+, 1.2 Mg^2+, 111 Cl^−, 24 HCO3^−, 1.2 SO4^2−, 1.18 H2PO4^−, 10 HEPES, 5.5 glucose, 0.03 EDTA. In Na^+-free solutions, Na^+ was substituted with an equimolar amount of N-methyl-D-glucammonium (NMDG^+), except for NaHCO3, which was replaced with choline-HCO3. In HCO3^−-free solutions, HCO3^− was replaced with an equimolar amount of Cl^−. HCO3^−-containing solutions were aerated with a gas mixture of 5% CO2/balance air, whereas HCO3^−-free solutions were gassed with air (i.e., 21% O2/balance N2). All solutions were titrated to pH 7.4 at 37° C.

[2] = tested on: axial pHi gradient in migrating VSMCs of primary aortic explants; test: Subcellular pHi by confocal microscopy (carboxy SNARF-1) in migrating VSMCs; type: cell-based, mouse
Procedure: (§3) Using wide-field fluorescence microscopy, global pHi was recorded in arteries and primary explants loaded with the pH-sensitive fluorophore BCECF. Recordings of pHi in subcellular domains were performed by confocal fluorescence microscopy of cells loaded with the pH-sensitive fluorophore carboxy SNARF-1. Intracellular buffering capacities were calculated from changes in pHi upon washout of NH4Cl. No difference in total intracellular buffering capacity (β) was seen between primary explants from NBCn1 KO and WT mice (βWT=15±2 mM, βKO=17±2 mM, n=8; P=0.45, unpaired two-tailed Student's t-test) evaluated at pHi 6.65-6.80.
Previous studies from non-vascular cell types propose that increased acid extrusion at the leading edge of migrating cells creates an axial pHi gradient, which can facilitate actin polymerization, filopodia formation, and cell migration. To investigate pH gradients within cells, we measured pHi -differences between the tip of filopodia and the general (perinuclear) cytosol two hours after scratch infliction. […] With the intention of investigating local pHi dynamics in the region of the filopodia, we incubated primary explants in absence of CO2/HCO3^− for two hours after wound infliction to allow for filopodia formation. We then investigated pHi after an additional 15 minutes with or without CO2/HCO3^− or in the presence of pharmacological inhibitors (FIG. 13E,F). […]

[3] = tested on: migrating VSMCs of primary aortic explants; test: Filopodia length at the migrating front after scratch infliction; type: cell-based, mouse; conditions: for presence of filopodia: 5 μM
Procedure: as §1

[4] = target: T1, NHE1-mediated Na+/H+-exchange in MCF-7 human breast cancer cells (Homo sapiens, UniProt P19634); conditions: Lauritzen et al., 2010; cited from earlier work
T1 construct: net acid extrusion from MCF-7 cells occurs through a combination of NBCn1-mediated Na^+,HCO3^−-cotransport and NHE1-mediated Na^+/H^+-exchange; endogenous in cells; host or cells: MCF-7 human breast cancer cells (Lauritzen et al., 2010)

[5] = tested on: Na+,HCO3−-cotransport in primary aortic explants; test: Global pHi recovery and steady-state pHi in primary aortic explants (BCECF); type: cell-based, mouse
Procedure: Primary explants were produced from thoracic aortas and common carotid arteries of NBCn1 KO and wild-type (WT) mice. To best maintain the cell morphology and phenotype of native VSMCs, cultured cells were never passaged but investigated directly in primary explants.
as §3
as §2, with “HCO3^−-containing solutions were aerated with a gas mixture of 5% CO2/balance air, whereas HCO3^−-free solutions were gassed with air (i.e., 21% O2/balance N2). All solutions were titrated to pH 7.4 at 37° C.” left out

[6] = target: T2, NBCn1-mediated Na+,HCO3−-cotransport in MCF-7 human breast cancer cells (Homo sapiens, UniProt Q9Y6M7); conditions: earlier work; cited from earlier work
T2 construct: net acid extrusion from MCF-7 cells occurs through a combination of NBCn1-mediated Na^+,HCO3^−-cotransport and NHE1-mediated Na^+/H^+-exchange; endogenous in cells; host or cells: MCF-7 human breast cancer cells (Lauritzen et al., 2010)
T2 sequence (Q9Y6M7 1-1214): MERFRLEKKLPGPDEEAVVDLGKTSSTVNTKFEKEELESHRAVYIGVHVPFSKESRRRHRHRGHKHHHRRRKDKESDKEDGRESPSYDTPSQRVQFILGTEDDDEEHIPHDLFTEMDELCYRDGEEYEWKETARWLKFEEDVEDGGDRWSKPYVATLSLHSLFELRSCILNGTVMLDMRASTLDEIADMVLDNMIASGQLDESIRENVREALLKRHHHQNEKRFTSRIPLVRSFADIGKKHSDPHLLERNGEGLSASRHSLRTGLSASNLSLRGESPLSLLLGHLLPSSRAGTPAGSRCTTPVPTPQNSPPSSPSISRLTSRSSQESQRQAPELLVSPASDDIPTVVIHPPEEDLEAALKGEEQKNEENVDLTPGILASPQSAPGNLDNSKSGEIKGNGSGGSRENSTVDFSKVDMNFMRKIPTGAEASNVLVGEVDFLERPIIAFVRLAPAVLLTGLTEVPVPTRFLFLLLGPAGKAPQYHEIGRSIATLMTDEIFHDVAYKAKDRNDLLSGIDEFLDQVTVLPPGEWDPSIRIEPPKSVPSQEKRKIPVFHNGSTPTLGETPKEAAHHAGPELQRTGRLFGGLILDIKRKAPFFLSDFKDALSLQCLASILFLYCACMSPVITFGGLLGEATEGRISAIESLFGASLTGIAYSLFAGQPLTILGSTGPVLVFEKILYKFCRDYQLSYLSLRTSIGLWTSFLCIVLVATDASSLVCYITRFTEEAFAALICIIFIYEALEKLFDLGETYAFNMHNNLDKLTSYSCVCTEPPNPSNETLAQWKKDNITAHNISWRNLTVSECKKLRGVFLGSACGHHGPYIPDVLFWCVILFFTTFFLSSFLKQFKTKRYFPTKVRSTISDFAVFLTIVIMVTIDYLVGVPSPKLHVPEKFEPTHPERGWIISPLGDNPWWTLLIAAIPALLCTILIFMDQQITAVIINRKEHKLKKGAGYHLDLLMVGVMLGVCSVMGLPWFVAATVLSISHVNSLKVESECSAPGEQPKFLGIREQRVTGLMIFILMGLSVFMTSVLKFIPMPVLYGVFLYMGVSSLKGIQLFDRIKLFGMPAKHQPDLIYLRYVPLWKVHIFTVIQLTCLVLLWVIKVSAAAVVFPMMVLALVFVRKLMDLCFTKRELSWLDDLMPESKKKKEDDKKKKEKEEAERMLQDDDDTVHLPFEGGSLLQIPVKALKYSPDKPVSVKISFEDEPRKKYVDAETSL

[7] = tested on: VSMCs of primary aortic explants; test: VSMC proliferation by time-lapse counting of mitoses; type: cell-based, mouse; conditions: 5 μM, PSS, six hours time-lapse
Procedure: as §1

[8] = tested on: Na+,HCO3−-cotransport in isolated arteries; conditions: previously shown; cited from earlier work
[9] = earlier work; cited from earlier work
primary aortic explants = test: Cell integrity, morphology and viability during 18 hours of time-lapse imaging; type: cell-based, mouse
Procedure: as §1, §2

[10] = tested on: Na+,HCO3−-cotransport in breast cancer slices or freshly isolated breast cancer organoids; conditions: earlier work; cited from earlier work

T1 sequence (P19634 whole entry): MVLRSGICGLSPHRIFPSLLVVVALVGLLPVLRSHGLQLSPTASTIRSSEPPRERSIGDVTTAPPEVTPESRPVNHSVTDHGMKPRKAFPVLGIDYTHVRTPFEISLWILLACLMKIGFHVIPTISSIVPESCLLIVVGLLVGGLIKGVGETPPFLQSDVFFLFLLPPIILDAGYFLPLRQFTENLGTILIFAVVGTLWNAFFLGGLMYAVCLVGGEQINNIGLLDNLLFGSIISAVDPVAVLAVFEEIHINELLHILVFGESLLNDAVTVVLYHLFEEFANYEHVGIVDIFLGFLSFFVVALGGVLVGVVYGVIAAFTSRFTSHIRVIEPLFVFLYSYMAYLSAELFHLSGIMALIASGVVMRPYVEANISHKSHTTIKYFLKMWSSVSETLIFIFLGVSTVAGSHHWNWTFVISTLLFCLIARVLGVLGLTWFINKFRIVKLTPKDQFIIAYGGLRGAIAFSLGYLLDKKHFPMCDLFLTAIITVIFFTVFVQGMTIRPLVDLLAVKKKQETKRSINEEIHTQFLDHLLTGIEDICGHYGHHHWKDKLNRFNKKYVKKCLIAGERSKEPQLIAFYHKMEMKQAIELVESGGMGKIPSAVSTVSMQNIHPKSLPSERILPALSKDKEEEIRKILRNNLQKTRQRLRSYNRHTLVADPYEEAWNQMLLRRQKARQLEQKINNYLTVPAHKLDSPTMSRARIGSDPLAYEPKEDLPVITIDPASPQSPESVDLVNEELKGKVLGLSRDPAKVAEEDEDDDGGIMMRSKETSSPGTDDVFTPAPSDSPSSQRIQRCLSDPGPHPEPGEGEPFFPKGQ

C[C@@H](N)[C@H]1CC[C@H](C(=O)Nc2ccncc2)CC1 [Y-27632]
wound healing ([1]; 10 μM, primary aortic explants from NBCn1 KO and WT mice): stimulated

CC(=O)Nc1nnc(S(N)(=O)=O)s1 [acetazolamide]
axial pHi gradients ([2]; 100 μM, explants from NBCn1 KO mice, presence of CO2/HCO3-): reestablishes
initial rate of wound healing ([1]; 100 μM, aortic explants from NBCn1 KO mice, CO2/HCO3−-containing medium with serum): increased
abundance of filopodia ([3]; 100 μM, aortic explants from NBCn1 KO mice, presence of CO2/HCO3-): increased abundance

CCN(c1nc(N)c(C(=O)N=C(N)N)nc1Cl)C(C)C [5-(N-Ethyl-N-isopropyl)amiloride]
remaining net acid extrusion after inhibition of Na+,HCO3−-cotransport in MCF-7 cells [4]: inhibited

Cc1ccc(CN(Cc2ccc(-c3ccccc3S(=O)(=O)NC#N)cc2)C(=O)c2ccccc2Cl)cc1 [S0859]
Na+,HCO3−-cotransport activity ([5]; primary aortic explants from WT mice, CO2/HCO3- present, 5 and 30 μM): concentration-dependently attenuates
steady-state pHi ([5]; primary aortic explants, five minutes after addition of S0859): concentration-dependently attenuates
Na+,HCO3−-cotransport in cultures of MCF7 breast cancer cells [6]: inhibits
relative number of mitoses [7]: no effect
pHi of migrating VSMCs, in particular at the tip of filopodia ([2]; 5 μM, 15 minutes exposure, PSS): strongly acidified
wound healing ([1]; 5 μM, PSS, presence of CO2/HCO3-): inhibited
cellular net acid extrusion in isolated arteries [8]: does not affect
protein binding [9]: unusually strong protein binding
cell integrity and morphology (primary aortic explants; 5 μM, 18 hours, PSS with CO2/HCO3-): well-maintained
cell morphology (primary aortic explants; 30 μM, 18 hours, PSS with CO2/HCO3-): severe morphological changes
cell viability (primary aortic explants; primary explants, CO2/HCO3−-containing PSS, FIG. 16): causes loss of cell viability
presence of filopodia ([3]; CO2/HCO3−-free conditions): unaffected
presence of filopodia ([3]; explants from WT mice, CO2/HCO3−-containing PSS): reduced
effect in breast cancer slices or freshly isolated breast cancer organoids [10]: has no effect
